Results published in patent US11707447B1.

Key:
5-HT1A receptor = target: T1, 5-HT1A receptor (Homo sapiens, UniProt P08908); experiment: cAMP-Glo assay in +5-HT1A / -5-HT1A CHO-K1 cells; assay type: cell-based; conditions: forskolin-stimulated +5-HT1A vs -5-HT1A cells, increasing ligand
T1 construct: host or cells: CHO-K1 (co-expressing Ga15)
T1 sequence (P08908 1-422): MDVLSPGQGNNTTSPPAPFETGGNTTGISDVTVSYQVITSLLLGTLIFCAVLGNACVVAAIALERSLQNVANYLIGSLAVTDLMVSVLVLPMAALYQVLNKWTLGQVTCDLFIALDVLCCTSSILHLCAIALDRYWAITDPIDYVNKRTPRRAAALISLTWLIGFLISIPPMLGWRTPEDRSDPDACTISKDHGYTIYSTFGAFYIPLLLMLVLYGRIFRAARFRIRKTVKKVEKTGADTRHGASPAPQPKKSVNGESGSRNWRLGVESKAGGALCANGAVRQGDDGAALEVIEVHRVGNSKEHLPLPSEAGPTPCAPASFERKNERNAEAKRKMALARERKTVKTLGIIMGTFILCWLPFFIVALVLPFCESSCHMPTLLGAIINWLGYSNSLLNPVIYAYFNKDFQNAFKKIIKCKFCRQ

5-HT2A receptor = 5-HT2A receptor (Homo sapiens, UniProt P28223); experiment: [3H]ketanserin competition radioligand binding assay (SPA); conditions: control ligands
Chain of 5-HT2A receptor (P28223 whole entry): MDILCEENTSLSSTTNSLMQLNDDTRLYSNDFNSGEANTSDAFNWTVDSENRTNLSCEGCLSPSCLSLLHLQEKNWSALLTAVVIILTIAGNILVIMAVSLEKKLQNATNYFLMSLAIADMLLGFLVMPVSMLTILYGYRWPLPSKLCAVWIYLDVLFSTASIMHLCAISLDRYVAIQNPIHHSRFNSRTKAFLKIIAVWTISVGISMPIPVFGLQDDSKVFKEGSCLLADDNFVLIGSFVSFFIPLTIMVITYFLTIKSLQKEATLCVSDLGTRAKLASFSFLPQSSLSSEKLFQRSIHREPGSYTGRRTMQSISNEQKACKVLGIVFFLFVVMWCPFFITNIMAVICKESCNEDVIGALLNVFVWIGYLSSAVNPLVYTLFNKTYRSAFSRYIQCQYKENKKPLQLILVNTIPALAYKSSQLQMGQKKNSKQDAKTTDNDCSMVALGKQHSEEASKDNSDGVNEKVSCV

`N[C@@H](Cc1c[nH]c2ccccc12)C(=O)O` [tryptophan] was tested, and the “cAMP level / 5-HT1A receptor modulation (in words)” value (5-HT1A receptor) was “no reduction in cellular cAMP levels” and the “5-HT2A competition binding (in words)” value (5-HT2A receptor) was “negative control (no binding)”.
